Columns and labels:
NB-4 = experiment: Growth inhibition of human NB4 cells by SRB assay; type: functional, cell-based
Histone deacetylase 2 = Histone deacetylase 2 (Homo sapiens, UniProt Q92769); experiment: Inhibition of HDAC2 in HeLa cell lysates
HCT-116 = experiment: Growth inhibition of human HCT116 cells by SRB assay; type: functional, cell-based
NCI-H460 = experiment: Growth inhibition of human H460 cells by SRB assay; type: functional, cell-based

Chain of Histone deacetylase 2 (Q92769 whole entry): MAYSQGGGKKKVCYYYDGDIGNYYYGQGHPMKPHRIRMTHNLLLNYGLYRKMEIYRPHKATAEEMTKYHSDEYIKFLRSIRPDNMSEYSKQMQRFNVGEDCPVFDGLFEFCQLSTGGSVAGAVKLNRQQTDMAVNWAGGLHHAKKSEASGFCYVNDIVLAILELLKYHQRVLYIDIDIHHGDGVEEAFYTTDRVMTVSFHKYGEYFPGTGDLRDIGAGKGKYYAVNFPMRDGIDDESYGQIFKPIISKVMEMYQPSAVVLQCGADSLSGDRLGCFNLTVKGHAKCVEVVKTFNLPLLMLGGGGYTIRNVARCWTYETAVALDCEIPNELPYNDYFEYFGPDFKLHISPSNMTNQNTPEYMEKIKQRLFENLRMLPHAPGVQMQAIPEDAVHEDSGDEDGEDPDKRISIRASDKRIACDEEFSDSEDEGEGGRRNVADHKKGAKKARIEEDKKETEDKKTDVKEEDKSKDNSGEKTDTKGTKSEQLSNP

| SMILES | IC50 (Histone deacetylase 2) [µM] | IC50 (HCT-116) [µM] | IC50 (NCI-H460) [µM] | IC50 (NB-4) [µM] |
| --- | --- | --- | --- | --- |
| COc1ccc(CO[C@H](CCCCCC(=O)NO)C(=O)Nc2ccccc2)cc1 | ≥ 0.05 | 0.39 | 0.5 | 0.07 |
| Cc1ccc(COC(CCCCCC(=O)NO)C(=O)Nc2ccccc2)cc1 (stereo not given) | ≥ 0.05 | 0.27 | 0.59 | 0.12 |
| COc1cccc(COC(CCCCCC(=O)NO)C(=O)Nc2ccccc2)c1 (stereo not given) | ≥ 0.05 | 0.63 | 0.59 | 0.16 |
| COc1cccc(COC(CCCCCC(=O)NO)C(=O)N(Cc2cccc(OC)c2)c2ccccc2)c1 (stereo not given) | 0.5 | 7.5 | 7.4 | 4 |
| COc1cc(COC(CCCCCC(=O)NO)C(=O)Nc2ccccc2)cc(OC)c1 (stereo not given) | ≥ 0.05 | 0.3 | 0.45 | 0.05 |
| COc1ccc(COC(CCCCCC(=O)NO)C(=O)Nc2ccc(OC)cc2)cc1 (stereo not given) | 0.5 | 0.34 | 0.3 | 0.15 |
| COc1ccc(COC(CCCCCC(=O)NO)C(=O)Nc2ccccc2)cc1 (stereo not given) | ≥ 0.05 | 0.22 | 0.52 | 0.12 |
| COc1ccc(CO[C@@H](CCCCCC(=O)NO)C(=O)Nc2ccccc2)cc1 | ≥ 0.05 | 0.25 | 0.45 | 0.11 |
| COC(CCCCC(=O)NO)C(=O)Nc1ccccc1 (stereo not given) | 0.5 | 5 | 5.7 | 3.5 |
| O=C(CCCCCC(Oc1cccc(Oc2ccccc2)c1)C(=O)Nc1ccccc1)NO (stereo not given) |  | 0.67 | 0.68 | 0.23 |
| C=CCOC(CCCCCCC(=O)NO)C(=O)Nc1ccccc1 (stereo not given) | ≥ 0.05 | 0.95 | 1.8 | 0.62 |

More lines, in order of falling IC50 (HCT-116), values ahead:

| IC50 (Histone deacetylase 2) [µM] | IC50 (HCT-116) [µM] | IC50 (NCI-H460) [µM] | SMILES | IC50 (NB-4) [µM] |
| --- | --- | --- | --- | --- |
| 0.5 | 8.5 | 10.4 | CCCOC(CCCCC(=O)NO)C(=O)Nc1ccccc1 (stereo not given) | 4.1 |
| 0.5 | 2.4 | 5.5 | O=C(CCCCC(OCc1ccccc1)C(=O)Nc1ccccc1)NO (stereo not given) | > 5 |
| 0.5 | 1.09 | 0.46 | O=C(CCCCCC(O)C(=O)Nc1ccccc1)NO (stereo not given) | 0.34 |
| 0.5 | 0.99 | 1.79 | C=CCOC(CCCCCC(=O)NO)C(=O)Nc1ccccc1 (stereo not given) | 0.45 |
| 0.5 | 0.88 | 1.2 | COC(CCCCCC(=O)NO)C(=O)Nc1ccccc1 (stereo not given) | 0.52 |
| 0.5 | 0.5 | 1 | COc1ccc(NC(=O)C(CCCCCC(=O)NO)OCc2ccccc2)cc1 (stereo not given) | 0.25 |
| ≥ 0.05 | 0.43 | 0.48 | O=C(CCCCCC(OCc1ccc(C(F)(F)F)cc1)C(=O)Nc1ccccc1)NO (stereo not given) | 0.17 |
| ≥ 0.05 | 0.28 | 0.49 | O=C(CCCCCC(OCc1ccc(Br)cc1)C(=O)Nc1ccccc1)NO (stereo not given) | 0.06 |
